Source: ChEMBL document CHEMBL1149341, “Two novel immunosuppressive pregnane glycosides from the roots of Stephanotis mucronata” (Bioorg Med Chem Lett, 2006)

What was measured:
Splenocyte [1] = assay: Inhibition of concanavalin A-stimulated mouse splenocyte proliferation by MTT method; assay type: functional, cell-based
Splenocyte [2] = assay: Inhibition of LPS-stimulated mouse splenocyte proliferation by MTT method; assay type: functional, cell-based

Row | Structure (SMILES) | Activity (Splenocyte [1]) | Activity (Splenocyte [2])
1 | CNc1ccccc1C(=O)O[C@H](C)[C@]1(O)CC[C@@]2(O)[C@]1(C)[C@H](OC(C)=O)C[C@@H]1[C@@]3(C)CC[C@H](O[C@H]4C[C@H](OC)[C@H](OC5C[C@H](OC)[C@H](O[C@@H]6O[C@H](C)[C@@H](O[C@@H]7O[C@H](CO)[C@@H](O)[C@H](O)[C@H]7O)[C@@H](OC)[C@H]6O)[C@@H](C)O5)[C@@H](C)O4)C[C@@H]3CC[C@]12O (some centres undefined) | Dose-dependent effect | Dose-dependent effect
2 | CO[C@H]1[C@@H](O)[C@H](O[C@H]2[C@@H](OC)C[C@H](O[C@H]3[C@@H](OC)C[C@H](O[C@H]4CC[C@@]5(C)C(=CC[C@]6(O)C5C[C@@H](OC(=O)c5cccnc5)[C@@]5(C)[C@]6(O)CC[C@@]5(O)[C@@H](C)OC(=O)/C=C/c5ccccc5)C4)O[C@@H]3C)O[C@@H]2C)O[C@H](C)[C@H]1O[C@@H]1O[C@H](CO)[C@@H](O)[C@H](O)[C@H]1O (some centres undefined) | Dose-dependent effect | Dose-dependent effect
